Source: the supplement of paper PMC4862054

Tests used:
Conditions in all cases: incubation time: 72 h
DU-4475 [1] = test: normalised response (% of control), CellTox Green; higher = less cell death (100 = DMSO, 0 = benzethonium chloride kill control)
Procedure, shortened: (§1)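 The table gives the normalised signal for a single concentration in each entry. Breast cancer cell lines were seeded (20 µl suspension) into 384-well plates holding compound at 5 concentrations in 10-fold steps over a compound-specific 10,000-fold range and incubated 72 h, then read for CellTox Green fluorescence (485/520 nm) and CellTiter-Glo luminescence. Normalisation on each plate used 0.1 % DMSO (100) and a positive kill control (0).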

HCC1599 [2] = test: as above
Procedure, shortened: as §1

CAL-51 [3] = test: as above
Procedure, shortened: as §1

MCF-10A [4] = test: as above
Procedure, shortened: as §1

MFM-223 [5] = test: as above
Procedure, shortened: as §1

MDA-MB-468 [6] = test: as above
Procedure, shortened: as §1

HDQ-P1 [7] = test: as above
Procedure, shortened: as §1

Hs578T [8] = test: as above
Procedure, shortened: as §1

MDA-MB-453 [9] = test: as above
Procedure, shortened: as §1

BT-474 [10] = test: as above
Procedure, shortened: as §1

MDA-MB-231 [11] = test: as above
Procedure, shortened: as §1

CAL-85-1 [12] = test: as above
Procedure, shortened: as §1

CAL-120 [13] = test: as above
Procedure, shortened: as §1

CAL-148 [14] = test: as above
Procedure, shortened: as §1

HCC1143 [15] = test: as above
Procedure, shortened: as §1

BT-549 [16] = test: as above
Procedure, shortened: as §1

DU-4475 [17] = test: normalised response (% of control), CellTiter-Glo; higher = more viable cells (100 = DMSO, 0 = benzethonium chloride kill control)
Procedure, shortened: as §1

HCC1599 [18] = test: as above
Procedure, shortened: as §1

CAL-51 [19] = test: as above
Procedure, shortened: as §1

MCF-10A [20] = test: as above
Procedure, shortened: as §1

MFM-223 [21] = test: as above
Procedure, shortened: as §1

MDA-MB-468 [22] = test: as above
Procedure, shortened: as §1

HDQ-P1 [23] = test: as above
Procedure, shortened: as §1

Hs578T [24] = test: as above
Procedure, shortened: as §1

MDA-MB-436 [25] = test: as above
Procedure, shortened: as §1

MDA-MB-453 [26] = test: as above
Procedure, shortened: as §1

BT-474 [27] = test: as above
Procedure, shortened: as §1

HCC1937 [28] = test: as above
Procedure, shortened: as §1

MDA-MB-231 [29] = test: as above
Procedure, shortened: as §1

SK-BR-3 = test: as above
Procedure, shortened: as §1

CAL-85-1 [30] = test: as above
Procedure, shortened: as §1

CAL-120 [31] = test: as above
Procedure, shortened: as §1

CAL-148 [32] = test: as above
Procedure, shortened: as §1

HCC1143 [33] = test: as above
Procedure, shortened: as §1

BT-549 [34] = test: as above
Procedure, shortened: as §1

MDA-MB-436 [35] = test: normalised response (% of control), CellTox Green; higher = less cell death (100 = DMSO, 0 = benzethonium chloride kill control)
Procedure, shortened: as §1

HCC1937 [36] = test: as above
Procedure, shortened: as §1

SMILES | normalised response (DU-4475 [1]) | normalised response (HCC1599 [2]) | normalised response (CAL-51 [3]) | normalised response (MCF-10A [4]) | normalised response (MFM-223 [5]) | normalised response (MDA-MB-468 [6]) | normalised response (HDQ-P1 [7]) | normalised response (Hs578T [8]) | normalised response (MDA-MB-453 [9]) | normalised response (BT-474 [10]) | normalised response (MDA-MB-231 [11]) | normalised response (CAL-85-1 [12]) | normalised response (CAL-120 [13]) | normalised response (CAL-148 [14]) | normalised response (HCC1143 [15]) | normalised response (BT-549 [16]) | normalised response (DU-4475 [17]) | normalised response (HCC1599 [18]) | normalised response (CAL-51 [19]) | normalised response (MCF-10A [20]) | normalised response (MFM-223 [21]) | normalised response (MDA-MB-468 [22]) | normalised response (HDQ-P1 [23]) | normalised response (Hs578T [24]) | normalised response (MDA-MB-436 [25]) | normalised response (MDA-MB-453 [26]) | normalised response (BT-474 [27]) | normalised response (HCC1937 [28]) | normalised response (MDA-MB-231 [29]) | normalised response (SK-BR-3) | normalised response (CAL-85-1 [30]) | normalised response (CAL-120 [31]) | normalised response (CAL-148 [32]) | normalised response (HCC1143 [33]) | normalised response (BT-549 [34]) | normalised response (MDA-MB-436 [35]) | normalised response (HCC1937 [36])
CC[C@H](Nc1ncnc2[nH]cnc12)c1nc2cccc(F)c2c(=O)n1-c1ccccc1 [GS-1101] (1000 nM) | 96.9% | 93.7% | 88.6% | 112% | 101% | 88.1% | 106% | 93.8% | 107% | 98.7% | 84.2% | 94.1% | 96.9% | 80.2% | 97.4% | 105% | 92.3% | 110% | 97.3% | 78.9% | 90.3% | 86.9% | 87.7% | 100% | 85.3% | 89.6% | 84.6% | 94.9% | 85.5% | 79.6% | 93.2% | 89.9% | 97.7% | 84.9% | 82.8% |  | 
Cc1ccc(-c2cc(C(F)(F)F)nn2-c2ccc(S(N)(=O)=O)cc2)cc1 [Celecoxib] (1000 nM) | 101% | 99.1% | 117% | 81.4% | 96% | 121% | 112% |  | 105% | 101% | 106% | 104% | 101% | 104% | 104% | 115% | 94% | 99.6% | 118% | 112% | 100% | 99.8% | 100% | 107% | 101% | 99% | 100% | 109% | 96.4% | 101% | 93.3% | 98.1% | 91.3% | 99.9% | 107% | 105% | 111%
Nc1nc(F)nc2c1ncn2[C@@H]1O[C@H](CO)[C@@H](O)[C@@H]1O [Fludarabine] (1000 nM) | 105% | 105% | 122% | 79.7% | 101% | 124% | 111% | 50.2% | 101% | 102% | 114% | 109% | 101% | 99.5% | 117% | 107% | 102% | 108% | 131% | 106% | 107% | 102% | 102% | 102% | 102% | 101% | 110% | 99.3% | 108% | 107% | 98.5% | 97.8% | 97.2% | 106% | 98.2% |  | 88.6%
C=CC(=O)N1CCC[C@@H](n2nc(-c3ccc(Oc4ccccc4)cc3)c3c(N)ncnc32)C1 [Ibrutinib] (100 nM) | 103% | 99.2% | 93.6% | 101% |  | 122% | 102% | 56.5% | 104% | 83.1% | 111% | 84.1% | 103% | 99.6% | 92.1% | 117% | 105% | 118% | 73.1% | 91% | 107% | 93.1% | 82.5% | 106% | 102% | 72.5% | 97.5% | 97.6% | 105% | 27.5% | 90.4% | 96.2% | 95.4% | 100% | 111% | 92.1% | 
CC[C@@H]1C(=O)N(C)c2cnc(Nc3ccc(C(=O)NC4CCN(C)CC4)cc3OC)nc2N1C1CCCC1 [BI 2536] (100 nM) | 98.5% | 91.7% | 49.6% | 36.6% | 70.5% | 73.3% |  | 82% | 103% | 100% | 24.3% | 71.5% | 87.1% | 97.7% | 79.2% | 93% | 63.3% | 37.9% | 21.9% | 60.3% | 49.1% | 47.9% | 84% | 38.8% | 53.1% | 86.5% | 55.9% | 86.7% | 51% | 17.6% | 81.7% | 63.4% | 68.1% | 47.5% | 23.6% | 82.5% | 113%
COc1cc2c(Oc3ccc4[nH]c(C)cc4c3F)ncnc2cc1OCCCN1CCCC1 [Cediranib] (100 nM) | 98.4% | 102% | 109% | 98.1% | 84.1% | 98.6% |  | 97.6% | 105% | 104% | 113% | 91.2% | 96.8% | 106% | 112% | 126% | 97.3% | 98% | 107% | 95.4% | 97.9% | 111% | 102% | 104% | 106% | 102% | 104% | 98.1% | 103% | 103% | 100% | 103% | 103% | 97.3% | 108% | 90.2% | 123%
CCc1cncnc1N1CCN(Cc2nc3ccc(C(F)(F)F)cc3[nH]2)CC1 (1000 nM) | 104% | 97.5% | 97% | 111% | 101% | 114% |  | 100% | 94.2% | 102% | 98.9% | 106% | 98.6% | 100% | 79.2% | 109% | 93.4% | 98.8% | 67% | 103% | 106% | 90.3% | 103% | 98.5% | 106% | 94.8% | 96.7% | 91.1% | 99.4% | 112% | 97.7% | 98.1% | 103% | 102% | 83.6% | 84.2% | 111%
C=CC(=O)Nc1cc2c(Nc3ccc(F)c(Cl)c3)ncnc2cc1OCCCN1CCOCC1 [Canertinib] (1000 nM) | 104% | 114% | 93.2% | 80.4% | 106% | 140% | 97.2% | 109% | 102% | 83.2% | 104% | 73.3% | 97.7% | 100% | 102% | 135% | 101% | 81.2% | 62.2% | 32.2% | 95% | 62% | 67.4% | 104% | 90.5% | 73.6% | 76.8% | 88.1% | 78% | 27.2% | 49.2% | 94.2% | 75.3% | 91.5% | 80.1% | 88.9% | 
C[C@H]1C[C@@H]2[C@H]([C@@H](O)C[C@@]3(C)[C@H]2CC[C@]3(O)C(=O)CO)[C@@]2(C)C=CC(=O)C=C12 [Methylprednisolone] (1000 nM) | 103% | 109% | 108% | 108% |  | 109% | 105% | 105% | 98.5% | 98.6% | 142% | 104% | 101% | 107% | 108% | 131% | 100% | 105% | 108% | 96.7% | 106% | 119% | 83.2% | 114% | 105% | 101% | 151% | 97.9% | 159% | 94.5% | 117% | 80.5% | 108% | 109% | 100% |  | 127%
